Three compounds from patent US5565330A, “Method for removing N-terminal dipeptides from precursor polypeptides with dipeptidylaminopeptidase from Dictyostelium discoideum” (Eli Lilly and Company, priority 1995, dated 1996) can be followed below.

What is called inhibition is the relative decrease from the control value, in per cent.

One test addresses T1, bovine spleen DAP-I (Bos taurus, UniProt Q3ZCJ8).
T1 construct: bovine spleen DAP-I; from tissue; host or cells: bovine spleen
In words: Inhibition of GFpNA cleavage by sulfhydryl modifying agents. Type of test: biochemical. As to conditions: 5 mM inhibitor, 15 minutes at room temperature, pH 7; then 4 mM GFpNA, pH 3.5, 37 degrees; read-out: decrease (inhibition) of bovine DAP-I's rate of cleavage of GFpNA. On the procedure: (§1) dDAP activity is normally monitored by following the cleavage of the chromogenic substrate Gly-Phe para-nitroanilide (GF-pNA). Typically the assay is performed by diluting the enzyme 11 fold into 1.0 ml of 4 mM GFpNA adjusted to pH 3.5. The rate of cleavage of GF dipeptide was monitored at 37° C. by measuring the increase in absorbance at 405 nm. One unit of activity leads to a 0.90 OD change per minute under these conditions. Unit/ml estimates can be made assuming an extinction coefficient for free pNA of 9.9 mM-1 cm-1 at 405 nm.
(§2) The inhibition profile of dDAP toward the substrate GFpNA was compared to that of bovine DAP-I using iodoacetamide and potassium tetrathionate, sulfhydryl modifying agents known to inhibit the activity of DAP-I. Samples of dDAP or bovine spleen DAP-I were incubated for 15 minutes at room temperature in final concentrations of 0, 0.5, 5.0 or 50 mM of either inhibitor at pH 7 in 100 mM Tris buffer. The incubated solutions were then diluted 21-fold with 4 mM GFpNA, pH 3.5. The rate of cleavage was monitored by measuring the increase in absorbance at 405 nm at 37 degrees centigrade. Bovine DAP-I's rate of cleavage of GFpNA was decreased more than 90% by the exposure to 5 mM iodoacetamide and was 95% inhibited by 5 mM potassium tetrathionate.

For the next test, the system named is dDAP. The description is as above. Type of test: biochemical, Dictyostelium discoideum. The settings on record: 0.5, 5.0 or 50 mM inhibitor, 15 minutes at room temperature, pH 7; then 4 mM GFpNA, pH 3.5. The method, then: as §1, §2
The nature of test [1]: Cleavage of blocked Benzyloxycarbonyl-RR-BNA (fluorescence). Type of test: biochemical. As to conditions: 0.25 mM Z-RR-BNA, pH 3.5 or pH 5.0. The method, then:
(§3) About 0.25 mM RR-BNA or 0.25 mM Benzyloxycarbonyl-RR-BNA (Z-RR-BNA) was prepared in either 100 mM acetic acid, pH 3.5, or 100 mM citrate buffer, pH 5.0. To 2 ml of substrate was added dDAP or bovine DAP-I (about 15 milliunit/ml solution). Rates of cleavage (monitoring fluorescence increase at 410 nm with excitation at 340 nm) were monitored. […] The pH optimum for cleavage of RR-BNA was probed by monitoring the rate of RR-BNA cleavage using a buffer system consisting of 50 mM acetic acid and 50 mM citrate. Various pHs were achieved using HCl or NaOH and 1.5 ml volumes were made 2.0 with 0.5 ml of a 1 mM stock solution of RR-BNA (final concentration of about 0.25 mM). dDAP was added (to about 15 mU/ml) and the rates of cleavage were determined.

The nature of test [2]: Cleavage of Arg-Arg-β-naphthylamide (fluorescence). The test is classed as biochemical. As to conditions: 0.25 mM RR-BNA, pH 3.5 or pH 5.0, about 15 milliunit/ml enzyme. The method, then: as §3
In a further test the test system is Met(O)-Arg-hPI. Briefly: Conversion of oxidized methionyl Met(O)-Arg-hPI (HPLC). The test is classed as biochemical, human. As to conditions: X is Arg, Phe and Tyr. On the procedure: Met-Arg-Human Proinsulin (Met-Arg-hPI) was produced as an insoluble protein in the cytoplasm of E. coli. The insoluble protein was solubilized in 7M urea. The protein was purified by ion exchange chromatography. The Met-Arg-hPI was sulfitolyzed, solvent exchanged and folded in order to form the native disulfide bond pairs and native tertiary structure. The material was further purified using reverse phase chromatography.
The Met-Arg-hPI was about 24 mg/ml (in approximately 20 mM glycine buffer, pH 3.5). About 2.4 mg of this material was incubated with 0.19 milliunits of dDAP at pH 3.5. The reaction was allowed to proceed at room temperature. Periodically, aliquots were removed and diluted with 10% phosphoric acid. This material was injected onto a neutral reverse phase HPLC system to monitor for the disappearance of Met-Arg-hPI or Met(O)-Arg-hPI and the subsequent production of hPI. In addition, aliquots were diluted into an appropriate diluent to allow for HPLC monitoring of appearance of either the Met-Arg or Met(O)-Arg dipeptides. Approximately 60% of the Met-Arg-hPI was converted to hPI in 8 hours. […] The rate of cleavage of both substrates was similar. […] The ability of dDAP to cleave the oxidized Met(O)-X substrate has distinct processing advantages over enzymes unable to perform this cleavage.

T1 sequence (Q3ZCJ8 231-394 limits assumed): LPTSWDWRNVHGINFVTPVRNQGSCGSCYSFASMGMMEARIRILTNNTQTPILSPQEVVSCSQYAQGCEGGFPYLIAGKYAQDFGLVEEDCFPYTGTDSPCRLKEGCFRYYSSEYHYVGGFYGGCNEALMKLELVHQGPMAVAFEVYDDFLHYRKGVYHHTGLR
T1 sequence (Q3ZCJ8 395-463 limits assumed): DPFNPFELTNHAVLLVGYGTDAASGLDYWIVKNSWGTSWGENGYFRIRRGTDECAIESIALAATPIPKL
T1 sequence (Q3ZCJ8 25-143 limits assumed): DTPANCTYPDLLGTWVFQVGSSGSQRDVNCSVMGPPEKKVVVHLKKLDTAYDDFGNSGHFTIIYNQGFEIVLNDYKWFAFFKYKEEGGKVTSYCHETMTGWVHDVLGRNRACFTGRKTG

For `O=S(=O)([O-])SSS(=O)(=O)[O-].[K+].[K+]` [potassium tetrathionate], the inhibition at 5000 µM at bovine spleen DAP-I came out at 95%. The “inhibition of dDAP cleavage of GFpNA” value in the test with dDAP was “no evidence of significant inhibition”.
With “bovine DAP-I: bovine spleen dipeptidylaminopeptidase I, comparison enzyme”, the “cleavage of blocked amino group Z-RR-BNA” value in test [1] is listed as “unable to cleave”. Besides, the “cleavage of RR-BNA” value in test [2] is reported as “unable to cleave”. For the same compound, in the test on Met(O)-Arg-hPI, the “cleavage of Met(O)-X-derivatives of hPI” value was “unable to cleave”.
As for `NC(=O)CI` [iodoacetamide], the inhibition at 5000 µM at bovine spleen DAP-I is more than 90%. The “inhibition of dDAP cleavage of GFpNA” value with dDAP is “no evidence of significant inhibition”.
